The results in this text go back to patent US20150259747A1, “METHOD OF PREDICTING A PREDISPOSITION TO QT PROLONGATION” (priority 2007, published 2015).

For the data set, the system named is individuals genotyped at the rs993648 locus. Briefly: QT interval change after two weeks of oral iloperidone in 174 individuals genotyped at the CERKL rs993648 locus. The settings on record: iloperidone 24 mg/day B.I.D. oral; for High QT, - test (number of individuals) / Low QT, - test (number of individuals): rs993648 genotype AB (- test); for High QT, - test (number of individuals) / High QT, + test (number of individuals) / Low QT, - test (number of individuals) / Low QT, + test (number of individuals): n=174; for High QT, + test (number of individuals) / Low QT, + test (number of individuals): rs993648 genotype non-AB (+ test). It is filed as in vivo, human. As to the method:
Since the QT interval changes with changes in heart rate, the QT interval is often measured as a corrected QT (QTc) interval. Any number of formulas may be employed to calculate the QTc, including, for example, the Fridericia formula (QTcF), the Bazett formula (QTcB), and the Rautaharju formula (QTp), among others. In the studies described herein, QT was calculated using the Fridericia formula. However, the present invention includes the use of any such formula or method for calculating a QTc or an uncorrected QT. Using the genotypes at the SNP loci above, it is possible, with a high degree of certainty, to predict an individual's predisposition to QT prolongation.

Setting [1] is: QTc change threshold >5 msec not exceeded.
Setting [2] is: QTc change threshold >15 msec not exceeded.
[3] abbreviates: QTc change threshold >30 msec not exceeded.

Structures are written as SMILES.

On to `COc1cc(C(C)=O)ccc1OCCCN1CCC(c2noc3cc(F)ccc23)CC1` [iloperidone], for which the “Odds Ratio” value (QTc change >5 msec vs rs993648 non-AB genotype) amounted to 3.62, the “Odds Ratio” value (QTc change >15 msec vs rs993648 non-AB genotype) worked out at 4.45 and the “Odds Ratio” value (QTc change >30 msec vs rs993648 non-AB genotype) is recorded as 6.16. Also, the “High QT, - test (number of individuals)” value by setting is: (QTc change >5 msec) 38; (QTc change >15 msec) 18; (QTc change >30 msec) 4. The “High QT, + test (number of individuals)” value runs as follows: (QTc change >5 msec) 72; (QTc change >15 msec) 53; (QTc change >30 msec) 23. For the same molecule, the “Low QT, - test (number of individuals)” value runs as follows: under setting [1], 42; under setting [2], 62; under setting [3], 76. For the same molecule, the “Low QT, + test (number of individuals)” value is given as 22 under setting [1], 41 under setting [2] and 71 under setting [3].
